Key:
[1] = tested on: YAP-TEAD interaction; assay: SK-HEP-1 reporter assay (8xTEAD responsive elements driving NanoLuc luciferase); assay type: cell-based; details: Homo sapiens, SK-HEP1, SK-HEP-1 reporter assay
How it was run: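 SK-HEP-1 cells stably carrying 8×TEAD-driven NanoLuc treated in duplicate, 10-point dose from 30 μM final, 0.3% DMSO, 24 h at 37° C. Luminescence after NanoGlo lysis/substrate addition; IC50 calculated from dose response.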

[2] = tested on: NCI-H226 cells; assay: Viability assay in NCI-H226 (Yap-dependent) cells, CyQuant; assay type: cell-based, human; details: Homo sapiens, NCI-H226, 96 h, class symbols
Experimental: (§1) Viability Assay in NCI-H226 (Yap-Dependent) and SW620 Yap KO (Yap Independent) Cells
(§2) The ability of YAP-TEAD inhibitors to inhibit tumor cell growth was evaluated using two different cell lines: NCI-H226, which is a YAP dependent cell line, and SW620 cells, where YAP and TAZ were knocked out using CRISPR to generate a YAP independent cell line.
(§3) For the assay, cells were treated in duplicates with the test compounds in a 10-point dose, 1:3 dilution steps, with the top concentration starting at 30 μM (final concentration in assay). After a 96 hour incubation at 37° C., 95% rH, and 5% CO2, a cell-permeant DNA-binding dye that stains only healthy cells (CyQUANT®, Promega) was added to the cells, allowing the quantification of cell viability.
(§4) Cell Media: The NCI-H226 cells were cultured in the following media: RPMI 1640, +10% FBS, +1× GlutaMAX, +10 mM HEPES, +0.5% Pen/Strep. The SW620-KO cells were cultured in the following media: DMEM/F-12, +10% FBS, +1× GlutaMAX, +10 mM HEPES, +0.5% Pen/Strep.
(§5) Reagents: The reagents used are listed below:
(§6) Cell culture: The cells were examined using an inverted microscope to check for health, cell density, etc. To dissociate adherent cells, the monolayer of cells was washed once with pre-warmed PBS. After removing the PBS, 3 ml pre-warmed Accutase was added to a F75 flask, dispersed evenly and the flask was allowed to sit in incubator for ˜4-5 minutes.
(§7) When a single cell suspension was obtained, 7 ml of prewarmed growth media was added and resuspended with the cells. The cell suspension was transferred to a sterile 15 ml conical centrifuge tube, and spun for 5 min at 300×g, RT. The supernatant was discarded and the pellet was resuspended in 10 ml of pre-warmed growth media.
(§8) The total cell count was determined, and 20 μl of the desired cell number was added to each well of a 384 well plate using a Multidrop Combi. The plates were then incubated for 24 hours at 37° C., 95% rH, and 5% CO2.
(§9) Compound treatment: 24 hours after seeding, the cells were treated with compounds.
(§10) A 1:333 dilution of compounds, diluted in DMSO, was made to get a final concentration of 0.3% DMSO per well. To transfer the compounds to the assay plate, […] was shot from Labcyte low dead volume plates to the cell plates containing 20 μl media/well with the ECHO 555 liquid handling system.
(§11) After treatment, the cells were fed with 20 μl fresh pre-warmed assay media using a Multidrop combi.
(§12) The assay plates were then incubated for 96 h at 37° C., 95% rH, and 5% CO2.
(§13) 96 h after treatment 30 μl of CyQuant® reagent was added to the assay plates using a Multidrop combi in the dark. The plates were then incubated for 1 hour at 37° C., 95% rH and 5% CO2. Thereafter, the assay plates were removed from the incubator and allowed to equilibrate to RT for 30 min in the dark without lid. Finally, they were measured using an EnVision microplate reader with a FITC bottom read program.

[3] = tested on: SW620 Yap KO cells; assay: Viability assay in SW620 Yap KO (Yap independent) cells, CyQuant; assay type: cell-based; details: Homo sapiens, SW-620, 96 h
Experimental: as §1, §2, §3, §4, §5, §6, §7, §8, §9, §10, §11, §12, §13

[4] = n.d. = value not detectable below threshold given in parentheses
[5] = n.d. = value not detectable below threshold given in parentheses, ND = not determinable within the entire range

IC50 ([1]; class symbols) [nM] | IC50 [2] [nM] | IC50 [3, 4] [nM] | IC50 [3, 5] [nM] | IC50 [1, 4] [nM] | IC50 ([3]; class symbols) [nM] | Compound
10 to 100 | 1 to 100 | > 3000 |  |  |  | Cn1nc2c3cc(C(=O)NC(CCO)c4ccccn4)ccc3n(-c3ccc(C(F)(F)F)cc3)c2n1 (stereo not drawn) [Example C226, N-[3-hydroxy-1-(pyridin-2-yl)propyl]-2-methyl-4-[4-(trifluoromethyl)phenyl]-2H,4H-[1,2,3]triazolo[4,5-b]indole-7-carboxamide]
1 to 10 | 1 to 100 |  | > 3000 |  |  | Cn1cnc2c1c1cc(C(=O)N[C@@](C)(CO)c3ccccn3)ccc1n2-c1ccc(C(F)(F)F)cc1 [Example C12, N-[(2R)-1-hydroxy-2-(pyridin-2-yl)propan-2-yl]-1-methyl-4-[4-(trifluoromethyl)phenyl]-1H,4H-imidazo [4,5-b]indole-7-carboxamide]
10 to 100 | 1 to 100 |  | > 30000 |  |  | CON(C)C(=O)c1ccc2c(c1)c1cn(C)nc1n2-c1ccc(C(F)(F)F)cc1 [Example C156, N-methoxy-N,2-dimethyl-8-[4-(trifluoromethyl)phenyl]-2H,8H-pyrazolo[3,4-b]indole-5-carboxamide]
10 to 100 | 1 to 100 |  | > 30000 |  |  | CC[C@@H](CO)NC(=O)c1ccc2c(c1)c1c(C)snc1n2-c1ccc(C(F)(F)F)cc1 [Example C83, N-[(2S)-1-hydroxybutan-2-yl]-3-methyl-8-[4-(trifluoromethyl)phenyl]-8H-[1,2]thiazolo [3,4-b]indole-5-carboxamide]
 | 1 to 100 | > 3000 |  | > 3000 |  | Cn1nc2c3cc(C(=O)N=[S@@](=O)(CCCO)Cc4ccccn4)ccc3n(-c3ccc(C(F)(F)F)cc3)c2n1 (single isomer, unassigned) [Example C237]
10 to 100 | 1 to 100 |  | > 3000 |  |  | Cn1nc2c3cc(C(=O)NC[C@H](O)C(F)(F)F)ccc3n(-c3ccc(C(F)(F)F)cc3)c2n1 [Example C159, 2-methyl-N-[(2S)-3,3,3-trifluoro-2-hydroxypropyl]-4-[4-(trifluoromethyl)phenyl]-2H,4H-[1,2,3]triazolo[4,5-b]indole-7-carboxamide]
10 to 100 | 1 to 100 | > 30000 |  |  |  | Cn1cc2c3cc(C(=O)N[C@@H](CO)c4ccccn4)ccc3n(-c3ccc(C(F)F)cc3)c2n1 [Example C248, 8-[4-(difluoromethyl)phenyl]-N-[(1R)-2-hydroxy-1-(pyridin-2-yl)ethyl]-2-methyl-2H,8H-pyrazolo[3,4-b]indole-5-carboxamide]
10 to 100 | 1 to 100 |  |  |  | 1000 to 10000 | Cn1nc2c3cc(C(=O)N[C@](C)(CO)c4ccccn4)ccc3n(-c3ccc(C(F)(F)F)cc3)c2n1 (single isomer, unassigned) [Example C187]
 | 1 to 100 | > 3000 |  | > 9500 |  | Cn1cc2c3cc(C(=O)N=S(=O)(CCO)Cc4ccncc4)ccc3n(-c3ccc(C(F)(F)F)cc3)c2n1 (stereo not drawn) [Example C216, N-[(2-hydroxyethyl)(oxo)[(pyridin-4-yl)methyl]-λ^6-sulfanylidene]-2-methyl-8-[4-(trifluoromethyl)phenyl]-2H,8H-pyrazolo[3,4-b]indole-5-carboxamide]
10 to 100 | 100 to 1000 | > 3000 |  |  |  | Cn1nnc2c3cc(C(=O)N=[S@](=O)(CCO)Cc4cccnc4)ccc3n(-c3ccc(C(F)(F)F)cc3)c21 (single isomer, unassigned) [Example C251]
10 to 100 | 100 to 1000 | > 30000 |  |  |  | Cn1cc2c3cc(CO)ccc3n(-c3ccc(C(F)(F)F)cc3)c2n1 [Example C182, {2-methyl-8-[4-(trifluoromethyl)phenyl]-2H,8H-pyrazolo[3,4-b]indol-5-yl}methanol]
100 to 10000 | 1 to 100 |  | > 30000 |  |  | Cn1cc2c3cc(C(=O)N=S(C)(=O)CCO)ccc3n(-c3ccc(C(F)(F)F)cc3)c2n1 (single isomer, unassigned) [Example C73]
10 to 100 | 1 to 100 | > 30000 |  |  |  | Cn1nc2c3cc(C(=O)N=S(C)(=O)CCO)ccc3n(-c3ccc(C(F)(F)F)cc3)c2n1 (single isomer, unassigned) [Example C192]
 | 1 to 100 | > 3000 |  | > 300 |  | Cn1nc2c3cc(C(=O)N=[S@@](=O)(CCCO)Cc4ccncc4)ccc3n(-c3ccc(C(F)(F)F)cc3)c2n1 (single isomer, unassigned) [Example C250]
10 to 100 | 1 to 100 |  | > 3200 |  |  | Cc1snc2c1c1cc(C(=O)NCC(C)(C)O)ccc1n2-c1ccc(C(F)(F)F)cc1 [Example C52, N-(2-hydroxy-2-methylpropyl)-3-methyl-8-[4-(trifluoromethyl)phenyl]-8H-[1,2]thiazolo[3,4-b]indole-5-carboxamide]
10 to 100 | 1 to 100 | > 30000 |  |  |  | C[C@H](CO)NC(=O)c1ccc2c(c1)c1cn(C)nc1n2-c1ccc(C(F)(F)F)c(F)c1 [Example C167, 8-[3-fluoro-4-(trifluoromethyl)phenyl]-N-[(2R)-1-hydroxypropan-2-yl]-2-methyl-2H,8H-pyrazolo[3,4-b]indole-5-carboxamide]
10 to 100 | 1 to 100 |  | > 30000 |  |  | Cn1nc2c3cc(C(=O)N=S(C)(=O)CCCO)ccc3n(-c3ccc(C(F)(F)F)cc3)c2n1 (stereo not drawn) [Example C25, N-[(3-hydroxypropyl)(methyl)oxo -¿6-sulfanylidene]-2-methyl-4-[4-(trifluoromethyl)phenyl]-2H,4H-[1,2,3]triazolo[4,5-b]indole-7-carboxamide]
10 to 100 | 100 to 1000 | > 30000 |  |  |  | Cn1cc2c3cc(C(=O)NCc4ccncc4)ccc3n(C3CC4(C3)CC(F)(F)C4)c2n1 [Example C208, 8-{6,6-difluorospiro[3.3]heptan-2-yl}-2-methyl-N-[(pyridin-4-yl)methyl]-2H,8H-pyrazolo [3,4-b]indole-5-carboxamide]
 | 1 to 100 |  |  | > 300 | 1000 to 10000 | Cn1cc2c3cc(C(=O)N=[S@@](=O)(CCO)Cc4ccncc4)ccc3n(-c3ccc(C(F)(F)F)cc3)c2n1 (single isomer, unassigned) [Example C254]
10 to 100 | 100 to 1000 | > 30000 |  |  |  | Cn1cc2c3cc(C(=O)NCc4ccncc4)ccc3n(-c3ccc(C(F)F)cc3)c2n1 [Example C209, 8-[4-(difluoromethyl)phenyl]-2-methyl-N-[(pyridin-4-yl)methyl]-2H,8H-pyrazolo[3,4-b]indole-5-carboxamide]
10 to 100 | 1 to 100 | > 3000 |  |  |  | C[C@H](NC(=O)c1ccc2c(c1)c1cn(C)nc1n2-c1ccc(C(F)(F)F)cc1)c1cccc(N)n1 (single isomer, unassigned) [Example C214]
10 to 100 | 100 to 1000 | > 3000 |  |  |  | Cn1nc2c3cc(C(=O)N[C@H](CCO)c4ccccn4)ccc3n(-c3ccc(C(F)(F)F)cc3)c2n1 (single isomer, unassigned) [Example C241]
10 to 100 | 1 to 100 |  | > 3200 |  |  | Cc1snc2c1c1cc(C(=O)NCc3ccncn3)ccc1n2-c1ccc(C(F)(F)F)cc1 [Example C64, 3-methyl-N-[(pyrimidin-4-yl)methyl]-8-[4-(trifluoromethyl)phenyl]-8H-[1,2]thiazolo[3,4-b]indole-5-carboxamide]
10 to 100 | 1 to 100 |  |  |  | 10000 to 30000 | Cn1cc2c3cc(C(=O)N[C@@H](CO)c4ccccn4)ccc3n(-c3ccc(C(F)(F)F)cn3)c2n1 [Example C150, N-[(1R)-2-hydroxy-1-(pyridin-2-yl)ethyl]-2-methyl-8-[5-(trifluoromethyl)pyridin-2-yl]-2H,8H-pyrazolo[3,4-b]indole-5-carboxamide]

Source: patent publication US20240270748A1 (Merck Patent GmbH, priority 2021, published 2024)
